Reference: ChEMBL document CHEMBL4261644, “Novel Symmetrical Benzazolyl Derivatives Endowed with Potent Anti-Heparanase Activity” (J Med Chem, 2018)
Values belong to the compound of their own block, whether it stands above or below them. Active and inactive are the calls of the source. The rule behind the calls is not given here.

Assays:
[1] = target: T1, Heparanase (Homo sapiens, UniProt Q9Y251); assay: Inhibition of recombinant HPSE (unknown origin) using fondaparinux as substrate incubated for 3 hrs in absence of light by WST1 assay
T1 sequence (Q9Y251 whole entry): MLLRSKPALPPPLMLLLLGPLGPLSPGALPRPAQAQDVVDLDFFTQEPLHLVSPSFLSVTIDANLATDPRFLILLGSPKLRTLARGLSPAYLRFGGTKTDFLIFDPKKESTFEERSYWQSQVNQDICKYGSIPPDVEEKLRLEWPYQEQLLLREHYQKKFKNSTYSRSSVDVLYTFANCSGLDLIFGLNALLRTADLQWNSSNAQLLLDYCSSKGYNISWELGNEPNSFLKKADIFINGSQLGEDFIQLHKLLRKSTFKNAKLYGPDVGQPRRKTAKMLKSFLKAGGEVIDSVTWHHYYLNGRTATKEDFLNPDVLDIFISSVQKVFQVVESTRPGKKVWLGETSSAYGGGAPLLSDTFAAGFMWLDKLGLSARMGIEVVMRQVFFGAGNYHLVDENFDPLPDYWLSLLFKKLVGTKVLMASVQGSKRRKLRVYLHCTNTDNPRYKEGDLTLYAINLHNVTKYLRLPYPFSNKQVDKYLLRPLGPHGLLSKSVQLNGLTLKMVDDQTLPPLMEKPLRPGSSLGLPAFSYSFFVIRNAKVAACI

[2] = target: T2, Heparanase (Homo sapiens) (UniProt Q9Y251); assay: Inhibition of HPSE in human HT1080 cells assessed as reduction in VEGF mRNA expression after 24 hrs by qPCR analysis relative to control; assay type: cell-based
T2 sequence (whole entry): T1 sequence (Q9Y251 whole entry)

[3] = target: T2, Heparanase (Homo sapiens); assay: Inhibition of HPSE in human HT1080 cells assessed as reduction in FGF2 mRNA expression after 24 hrs by qPCR analysis relative to control; assay type: cell-based
[4] = species on record: Homo sapiens; assay: Anti-invasive activity in human CME1 cells assessed as reduction in invasive potential after 24 hrs by matrigel invasion assay; assay type: functional, cell-based
[5] = tested on: HT-1080; assay: Anti-invasive activity in human HT1080 cells assessed as reduction in invasive potential at 10 uM after 24 hrs by matrigel invasion assay relative to control; assay type: functional; details: HT-1080, 24 h
[6] = tested on: U2OS; assay: Anti-invasive activity in human U2OS cells assessed as reduction in invasive potential at 10 uM after 24 hrs by matrigel invasion assay relative to control; assay type: functional
[7] = tested on: U-87 MG; assay: Antiproliferative activity against human U87MG cells after 72 hrs by SRB assay; assay type: cell-based, U-87MG ATCC; details: u-87mg atcc
[8] = target: T2, Heparanase (Homo sapiens); assay: Inhibition of HPSE in human HT1080 cells assessed as reduction in FGF1 mRNA expression after 24 hrs by qPCR analysis relative to control; assay type: cell-based
[9] = target: T2, Heparanase (Homo sapiens); assay: Inhibition of HPSE in human HT1080 cells assessed as reduction in MMP9 mRNA expression after 24 hrs by qPCR analysis relative to control; assay type: cell-based
[10] = tested on: U2OS; assay: Antiproliferative activity against human U2OS cells after 72 hrs by SRB assay; assay type: cell-based; details: u2os
[11] = tested on: HT-1080; assay: Antiproliferative activity against human HT1080 cells after 72 hrs by SRB assay; assay type: cell-based; details: ht-1080
[12] = species on record: Homo sapiens; assay: Anti-invasive activity in human CME1 cells assessed as reduction in invasive potential at […] uM after 72 hrs by matrigel invasion assay; assay type: functional, cell-based
[13] = tested on: U-87 MG; assay: Anti-invasive activity in human U87MG cells assessed as reduction in invasive potential at 10 uM after 24 hrs by matrigel invasion assay relative to control; assay type: functional, U-87MG ATCC
[14] = target: T2, Heparanase (Homo sapiens); assay: Inhibition of HPSE in human HT1080 cells assessed as reduction in HPSE mRNA expression after 24 hrs by qPCR analysis relative to control; assay type: cell-based
[15] = Antiproliferative activity against HPSE-expressing human CME1 cells after 72 hrs by SRB assay; assay type: functional
[16] = species on record: Homo sapiens; assay: Anti-invasive activity in human CME1 cells assessed as reduction in invasive potential at […] uM after 24 hrs by matrigel invasion assay; assay type: functional, cell-based
[17] = tested on: HT-1080; assay: Anti-invasive activity in human HT1080 cells assessed as reduction in invasive potential at […] after 24 hrs by matrigel invasion assay relative to control; assay type: functional, cell-based

IC50 [1]: 0.98 µM
Compound: O=C(O)Cc1ccc2[nH]c(-c3ccc(NC(=O)Nc4ccc(-c5nc6cc(CC(=O)O)ccc6[nH]5)cc4F)c(F)c3)nc2c1

IC50 [1]: 9.17 µM
Compound: O=C(Nc1ccc(C(=O)Nc2cccc(C(=O)O)c2)cc1)Nc1ccc(C(=O)Nc2cccc(C(=O)O)c2)cc1

IC50 [1]: 2.61 µM
Compound: O=C(O)Cc1cccc(NC(=O)c2ccc(NC(=S)Nc3ccc(C(=O)Nc4cccc(CC(=O)O)c4)cc3F)c(F)c2)c1

IC50 [1]: 1.81 µM
Compound: O=C(O)Cc1ccc2oc(-c3ccc(NC(=S)Nc4ccc(-c5nc6cc(CC(=O)O)ccc6o5)cc4)cc3)nc2c1

IC50 [1]: > 10 µM
Compound: O=C(O)Cc1cccc(NC(=O)c2ccc(CC(=O)Cc3ccc(C(=O)Nc4cccc(CC(=O)O)c4)cc3)cc2)c1

inhibition [2]: Active | inhibition [3]: Active | IC50 [7]: Not Active | inhibition [8]: Active | inhibition [9]: Active | IC50 [10]: Not Active | IC50 [11]: Not Active | inhibition [14]: Active | IC50 [1]: 0.18 µM
Compound: O=C(O)Cc1ccc2oc(-c3ccc(NC(=O)Nc4ccc(-c5nc6cc(CC(=O)O)ccc6o5)cc4F)c(F)c3)nc2c1
Activity [4]: Dose-dependent effect | inhibition at 10 µM [5]: < 50% | inhibition at 10 µM [6]: 50 to 90% | Activity [12]: Active | inhibition at 10 µM [13]: 50 to 90% | IC50 [15]: 9.5 µM | Activity [16]: inactive

inhibition ([2]; concentration not given here): < 40% | inhibition [3]: < 40% | IC50 [7]: Not Active | inhibition [8]: < 40% | inhibition [9]: < 40% | IC50 [10]: Not Active | IC50 [11]: Not Active | inhibition ([14]; concentration not given here): < 40% | IC50 [1]: 0.08 µM
Compound: O=C(O)CNC(=O)Cc1ccc2oc(-c3ccc(NC(=S)Nc4ccc(-c5nc6cc(CC(=O)NCC(=O)O)ccc6o5)cc4F)c(F)c3)nc2c1
inhibition [17]: Active | inhibition at 10 µM [5]: 50 to 90% | inhibition at 10 µM [6]: < 50% | inhibition at 10 µM [13]: 50 to 90%

IC50 [7]: Not Active | IC50 [10]: Not Active | IC50 [11]: Not Active | IC50 [1]: 3.2 µM
Compound: O=C(O)Cc1ccc2oc(-c3ccc(NC(=O)Nc4ccc(-c5nc6cc(CC(=O)O)ccc6o5)cc4)cc3)nc2c1

IC50 [1]: > 10 µM
Compound: O=C(O)Cc1cccc(NS(=O)(=O)c2ccc(NC(=O)Nc3ccc(S(=O)(=O)Nc4cccc(CC(=O)O)c4)cc3)cc2)c1

More lines, now with the values behind:

Compound: O=C(Cc1ccc2[nH]c(-c3ccc(NC(=O)Nc4ccc(-c5nc6cc(CC(=O)NCB(O)O)ccc6[nH]5)cc4F)c(F)c3)nc2c1)NCB(O)O
IC50 [1]: > 10 µM

Compound: Cc1cc2nc(-c3ccc(NC(=O)Nc4ccc(-c5nc6cc(C)c(C)cc6o5)cc4F)c(F)c3)oc2cc1C
IC50 [1]: > 10 µM

Compound: O=C(O)Cc1ccc(O)c(NC(=O)c2ccc(CC(O)Cc3ccc(C(=O)Nc4cc(CC(=O)O)ccc4O)cc3)cc2)c1
IC50 [1]: > 10 µM

Compound: O=C(O)Cc1cccc(NC(=O)c2ccc(CC(O)Cc3ccc(C(=O)Nc4cccc(CC(=O)O)c4)cc3)cc2)c1
IC50 [1]: > 10 µM

Compound: O=C(Cc1ccc2oc(-c3ccc(NC(=O)Nc4ccc(-c5nc6cc(CC(=O)NCB(O)O)ccc6o5)cc4F)c(F)c3)nc2c1)NCB(O)O
IC50 [1]: > 10 µM

Compound: N=C(Nc1ccc(-c2nc3cc(CC(=O)O)ccc3o2)cc1)Nc1ccc(-c2nc3cc(CC(=O)O)ccc3o2)cc1
IC50 [1]: 6.02 µM

Compound: O=C(O)CNC(=O)Cc1ccc2[nH]c(-c3ccc(NC(=O)Nc4ccc(-c5nc6cc(CC(=O)NCC(=O)O)ccc6[nH]5)cc4F)c(F)c3)nc2c1
IC50 [1]: > 10 µM
